In paper PMC10786919, “Design-rules for stapled peptides with in vivo activity and their application to Mdm2/X antagonists” (Nature Communications, 2024):
In brackets after ≈: the same amount, converted by molar mass. Like-named read-outs stand apart in the source and are kept apart here. Positions of bridges follow the written chain, without caps; N, C: chain ends. Non-standard residues stand in square brackets, D forms with d. Residues, ends and D or L forms follow the SMILES beside them. Lys(N3) = [N-]=[N+]=NCCCC[C@H](N)C(=O)O; Gla = N[C@@H](CC(C(=O)O)C(=O)O)C(=O)O; R8 = C=CCCCCCC[C@@](C)(N)C(=O)O; Cba = N[C@@H](CC1CCC1)C(=O)O; S5 = C=CCCC[C@](C)(N)C(=O)O; βAla = NCCC(=O)O

Tests used:
human Mdm2 1–125 = target: T1, human Mdm2 1–125 (Homo sapiens, UniProt Q00987); assay: Mdm2 binding by competitive fluorescence anisotropy assay (FP binding)
T1 construct: GST (N); His6 (internal); TEV cleavage site (ENLYFQG) (internal); made in house; host or cells: BL21 (DE3) Rosetta T1R Escherichia coli
From the text: The TEV (tobacco etch virus) cleavage site was changed from ENLYFQS to ENLYFQG to give a fusion protein with the following sequence:
[P] is the protein concentration (Mdm2), [L] is the labeled peptide concentration, r is the anisotropy measured, r0 is the anisotropy of the free peptide, rb is the anisotropy of the Mdm2–FAM-labeled peptide complex, Kd is the dissociation constant, [L]t is the total FAM labeled peptide concentration, and [P]t is the total Mdm2 concentration. […] This value was then used to determine apparent Kd values of the respective competing ligands in subsequent competition assays in fluorescence anisotropy experiments.
The competing molecules were then titrated against the complex of the FAM-labeled peptide and protein. Apparent Kd values were determined by fitting the experimental data to equations shown below:2 r=ro+(rb−ro)×2(d^2−3e)cos(θ/3)−9/3Kd1+2(d^2−3e)cos(θ/3)−d 3 d=Kd1+Kd2+[L]st+[L]t−Pt 4 e=Lt−PtKd1+Lst+PtKd2+Kd1Kd2 5 f=−Kd1Kd2[P]t 6 θ=arcos−2d^3+9de−27f/2(d^2−3e)^3
[L]st and [L]t denote labeled ligand and total unlabeled ligand input concentrations, respectively. Kd2 is the dissociation constant of the interaction between the unlabeled ligand and the protein. In all competition experiments, it is assumed that [P]t > [L]st, otherwise considerable amounts of free labeled ligand would always be present and would interfere with measurements. […] The FAM-labeled peptide was dissolved in dimethyl sulfoxide (DMSO) at 1 mM and diluted into experimental buffer. Readings were carried out with an Envision Multilabel Reader (PerkinElmer). […] Curve-fitting was carried out using Prism 4.0 (GraphPad). […] Negative control titrations of the ligands under investigation were also carried out with the fluorescently labeled peptide (in the absence of Mdm2) to ensure no interactions were occurring between the ligands and the FAM-labeled peptide. […] Measurements were taken a minimum of three times (biological replicates) and values are reported as geometric means of the replicates.

[1] = tested on: p53 responsive β-lactamase reporter in HCT116 cells; assay: cells; assay type: cell-based; conditions: 0% FBS 4Hr
Method in brief: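 Read-out used the ToxBLAzer Dual Screen for β-lactamase driven by a stably integrated p53-responsive reporter. Assay: 8000 HCT116 cells per well at 0.5% final DMSO. Reported numbers are geometric means over a minimum of three biological replicates.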

[2] = Lactate dehydrogenase (LDH) release assay; assay type: cell-based
Method in brief: (§1)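 LDH release, fluorometric membrane-integrity read-out; HCT116 with stable p53-responsive β-lactamase reporter; 8000 cells/well; 0.5% DMSO final; geometric mean, n≥3 biological replicates.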

HCT116 cells = assay: Lactate dehydrogenase (LDH) release assay; assay type: cell-based
Method in brief: as §1

[3] = tested on: Jump-In T-REx CHO-K1 BLA cells; assay: cells; assay type: cell-based; conditions: 0% FBS 4Hr
[4] = Solubility assay (kinetic solubility, PBS pH 7); assay type: physicochemical
Method in brief: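 Quantitation uses an external standard at 100 µM, prepared from 10 mM stock in acetonitrile:methanol:DMSO (10:80:10). Solubility (µM) = (peak area of sample ÷ peak area of standard) × standard concentration.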

EPSA = assay type: physicochemical; conditions: EPSA
[5] = Experimental LogD (partition coefficient); conditions: not stated, Partition Coeff LogD
[6] = tested on: cells transiently transfected with the NanoLuc-HaloTag vector; assay: in vitro; conditions: 4 h
Method in brief: (§2)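 Azido-peptide permeability was read as loss of NanoBRET signal (donor 450 nm, acceptor 610 nm) after adding NanoBret618-azide at 10 μM final.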

Ca Ski cell line = conditions: Ca Ski
Method in brief: (§3)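 Compound dilution series (10 points, 3-fold, 10 mM top stock in DMSO) tested on overnight-plated Ca Ski cells in RPMI1640/10% FBS and on blasticidin-selected p53RE-bla HCT-116 cells in McCoy's 5A; read-out was CellTiter-Glo 2.0 luminescence after room-temperature equilibration.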

[7] = tested on: CellSensor p53RE-bla HCT-116 Cell Line; conditions: read-out: Proliferation EC50 HCT116 (On-target); HCT116
Method in brief: as §3

[8] = Nanoclick permeability assay
Method in brief: as §2

[9] = pH 7, aqueous buffer, kinetic from dmso stock, pH 7, PBS, read-out: Solubility

T1 sequence (Q00987 with tags, fused parts or gaps): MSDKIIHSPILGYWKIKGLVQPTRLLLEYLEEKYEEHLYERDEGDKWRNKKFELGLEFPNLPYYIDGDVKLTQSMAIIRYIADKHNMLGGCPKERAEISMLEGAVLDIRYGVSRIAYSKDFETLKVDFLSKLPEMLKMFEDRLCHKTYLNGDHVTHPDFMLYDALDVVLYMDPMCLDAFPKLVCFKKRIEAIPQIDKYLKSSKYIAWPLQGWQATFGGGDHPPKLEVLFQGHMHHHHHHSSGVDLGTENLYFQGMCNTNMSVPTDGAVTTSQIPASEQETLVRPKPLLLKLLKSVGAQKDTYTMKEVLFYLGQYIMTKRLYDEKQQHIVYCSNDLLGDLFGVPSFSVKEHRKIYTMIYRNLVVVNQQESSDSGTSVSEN

SMILES: CC(=O)N[C@@H](CC(C)C)C(=O)N[C@H](C(=O)N[C@@H](Cc1ccccc1)C(=O)N[C@]1(C)CCCCCCC=CCCC[C@@](C)(C(=O)N[C@@H](CO)C(=O)N[C@@H](C)C(=O)N[C@@H](C)C(N)=O)NC(=O)[C@H](CC(C)C)NC(=O)[C@H](CCC(N)=O)NC(=O)[C@H](C)NC(=O)[C@H](Cc2c[nH]c3ccccc23)NC(=O)[C@H](Cc2ccc(O)cc2)NC(=O)[C@H](CCC(=O)O)NC1=O)[C@@H](C)O [MP-154]
- Kd (human Mdm2 1–125; read-out: FP binding assay KD): 44.4 nM
- p53 reporter assay: % Effect [1]: 150.7%
- EC50 ([1]; read-out: p53 reporter assay: EC50): 418 nM
- EC50 ([2]; LDH: Cytotoxicity assay: EC50): > 50700 nM
- LDH: Cytotoxicity assay: % Effect (HCT116 cells): 34.9%
- TETCHO: Counterscreen % Effect [3]: 205.4%
- EC50 ([3]; read-out: TETCHO: Counterscreen EC50): 27100 nM
- solubility kinetic [4, 9]: 146 µM (≈ 254 µg/mL)
- EPSA (EPSA): 199 A^2
- logD [5]: 2.87

SMILES: CC(=O)N[C@@H](CCCCN=[N+]=[N-])C(=O)NCCC(=O)N[C@@H](CC(C)C)C(=O)N[C@H](C(=O)N[C@@H](Cc1ccccc1)C(=O)N[C@]1(C)CCCCCCC=CCCC[C@@](C)(C(=O)N[C@@H](CCO)C(=O)N[C@@H](CCO)C(=O)N[C@@H](Cc2ccccc2)C(=O)N[C@@H](CCO)C(=O)N[C@@H](CCO)C(=O)N[C@@H](Cc2ccccc2)C(N)=O)NC(=O)[C@H](CC2CCC2)NC(=O)[C@H](CCC(N)=O)NC(=O)[C@H](C)NC(=O)[C@H](Cc2c[nH]c3ccccc23)NC(=O)[C@H](Cc2ccc(O)cc2)NC(=O)[C@H](CCC(=O)O)NC1=O)[C@@H](C)O [MP-803]
- solubility kinetic ([4]; pH 7, Solubility): 1 µM (≈ 2.44 µg/mL)
- cell entry EC50 [6]: 6860 nM

SMILES: CC(=O)N[C@@H](CCCCN=[N+]=[N-])C(=O)NCCC(=O)N[C@@H](CC(C)C)C(=O)N[C@H](C(=O)N[C@@H](Cc1ccccc1)C(=O)N[C@]1(C)CCCCCCC=CCCC[C@@](C)(C(=O)N[C@@H](CC(C(=O)O)C(=O)O)C(=O)N[C@@H](C)C(=O)N[C@@H](C)C(=O)N[C@@H](C)C(=O)N[C@@H](C)C(=O)N[C@H](C)C(N)=O)NC(=O)[C@H](CC2CCC2)NC(=O)[C@H](CCC(N)=O)NC(=O)[C@H](C)NC(=O)[C@H](Cc2c[nH]c3ccccc23)NC(=O)[C@H](Cc2ccc(O)cc2)NC(=O)[C@H](CCC(=O)O)NC1=O)[C@@H](C)O [MP-897] (Ac-[Lys(N3)][βAla]LTF[R8]EYWAQ[Cba][S5][Gla]AAAA[dA]-NH2; staple 6-13)
- Kd (human Mdm2 1–125; Binding KD): < 1 nM
- EC50 ([2]; 0% FBS 4Hr, read-out: LDH: Cytotoxicity assay: EC50): > 50700 nM
- EC50 ([2]; 10% FBS 16Hr, read-out: LDH: Cytotoxicity assay: EC50): > 50700 nM
- LDH: Cytotoxicity assay: % Effect (HCT116 cells; 0% FBS 4Hr): 6.465%
- LDH: Cytotoxicity assay: % Effect (HCT116 cells; 10% FBS 16Hr): 20.53%
- solubility kinetic [4, 9]: 163 µM (≈ 370 µg/mL)
- Proliferation % inhibition at 50 µM Ca Ski (Ca Ski cell line; 50 µM): -19.1%
- EC50 (Ca Ski cell line; read-out: Proliferation EC50 Ca Ski (Off-target)): > 49800 nM
- EC50 [7]: 790 nM
- cell entry EC50 [8]: 2270 nM
- EPSA (EPSA): 257 A^2
- logD [5]: 2.25
